The source of these data is patent US10112940B2, “Histone demethylase inhibitors” (Celgene Quanticel Research, Inc., priority 2014, dated 2018).

A value given as a limit tells only on which side of the number the result lay.

One test has as its target JMJD2C (Homo sapiens (Human), UniProt Q9H3R0). As to the kind of experiment: JMJD2C in vitro enzyme inhibition assay (TR-FRET). The conditions noted are these: 0.3 nM JMJD2C, 300 nM H3K9me3-biotin peptide, 2 μM alpha-ketoglutaric acid, 30 minutes. Type of test: biochemical. The gist of the method:
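Baculovirus-expressed JMJD2C (aa 2-372), 0.3 nM, with 300 nM biotin-H3K9me3 peptide and 2 μM alpha-ketoglutarate in HEPES pH 7.3 with ascorbate and Fe(II), 30 min at room temperature, 11-point inhibitor series. H3K9me2 product detected by TR-FRET (Eu-antibody/streptavidin-APC, 665/615 ratio); IC50 fitted.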

In test [1] the test system is KYSE-150 esophageal carcinoma cell line. As to the kind of experiment: In vitro cell-based assay: BrdU incorporation cell proliferation ELISA. The conditions noted are these: Homo sapiens, KYSE-150 cells, 168 hours compound incubation, read-out: Cellular IC50. On the set-up: species or system human. The gist of the method: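 KYSE-150 cells (SMAD4 mut, TP53 mut) seeded at 2,000 cells/well, treated next day with 11-point dilutions (100 μM to 2 nM final) for 168 h. Proliferation read by 2 h BrdU labelling and colorimetric anti-BrdU ELISA at 450 nm; IC50 from curve fit.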

JMJD2C, sequence (Q9H3R0 2-372): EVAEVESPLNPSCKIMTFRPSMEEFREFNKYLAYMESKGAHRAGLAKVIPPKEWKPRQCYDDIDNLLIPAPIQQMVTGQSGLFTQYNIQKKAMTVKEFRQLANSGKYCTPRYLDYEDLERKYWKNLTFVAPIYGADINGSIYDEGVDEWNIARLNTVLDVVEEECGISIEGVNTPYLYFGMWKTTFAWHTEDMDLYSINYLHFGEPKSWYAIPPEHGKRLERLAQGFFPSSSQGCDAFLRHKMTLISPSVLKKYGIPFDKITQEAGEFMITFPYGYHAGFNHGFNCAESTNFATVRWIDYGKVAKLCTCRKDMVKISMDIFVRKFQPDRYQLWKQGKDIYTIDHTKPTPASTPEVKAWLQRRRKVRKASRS

Regarding `CN(c1ccc(C#N)cc1)c1ccc(Oc2nc(O)c3ccncc3n2)cc1` [Example 81, 4-[4-(4-hydroxypyrido[3,4-d]pyrimidin-2-yl)oxy-N-methylanilino]benzonitrile], the IC50 at JMJD2C is 100 to 1000 nM; in test [1] it was more than 10000 nM.
The like results for `CN(c1ccc(Oc2nc(O)c3ccncc3n2)cc1)c1ccc2nn(C)cc2c1` [Example 82, 2-[4-[methyl-(2-methylindazol-5-yl)amino]phenoxy]pyrido[3,4-d]pyrimidin-4-ol] were, in that order, 100 to 1000 nM and more than 10000 nM.
The like results for `Cc1ccc(N(C)c2ccc(Oc3nc(O)c4ccncc4n3)cc2)cc1C` [Example 83, 2-[4-(N,3,4-trimethylanilino)phenoxy]pyrido[3,4-d]pyrimidin-4-ol] were, in that order, 1000 to 10000 nM and 100 to 1000 nM.
Take `CCc1ccc(N(C)c2ccc(Oc3nc(O)c4ccncc4n3)cc2)cc1` [Example 84, 2-[4-(4-ethyl-N-methylanilino)phenoxy]pyrido[3,4-d]pyrimidin-4-ol]: the results for the IC50 (at JMJD2C; in test [1]) were 100 to 1000 nM and not above 100 nM, respectively.
In the same order, the values of `CC(C)c1ccc(N(C)c2ccc(Oc3nc(O)c4ccncc4n3)cc2)cc1` [Example 85, 2-[4-(N-methyl-4-propan-2-ylanilino)phenoxy]pyrido[3,4-d]pyrimidin-4-ol] are 1000 to 10000 nM and not above 100 nM.
In the same order, the values of `CN(c1ccc(Oc2nc(O)c3ccncc3n2)cc1)c1cccc(C(F)(F)F)c1` [Example 86, 2-[4-[N-methyl-3-(trifluoromethyl)anilino]phenoxy]pyrido[3,4-d]pyrimidin-4-ol] are 1000 to 10000 nM and 100 to 1000 nM.
The like results for `CN(c1ccc(Oc2nc(O)c3ccncc3n2)cc1)c1ccc(C(F)(F)F)cc1` [Example 87, 2-[4-[N-methyl-4-(trifluoromethyl)anilino]phenoxy]pyrido[3,4-d]pyrimidin-4-ol] were, in that order, 1000 to 10000 nM and 100 to 1000 nM.
Take `CN1CCCN(c2cccc(N(C)c3ccc(Oc4nc(O)c5ccncc5n4)cc3)c2)CC1` [Example 88, 2-[4-[N-methyl-3-(4-methyl-1,4-diazepan-1-yl)anilino]phenoxy]pyrido[3,4-d]pyrimidin-4-ol]: the IC50 at JMJD2C was not above 100 nM; in test [1], more than 10000 nM.
The like results for `CN1CCC(N(C)c2cccc(N(C)c3ccc(Oc4nc(O)c5ccncc5n4)cc3)c2)CC1` [Example 89, 2-[4-[N-methyl-3-[methyl-(1-methylpiperidin-4-yl)amino]anilino]phenoxy]pyrido[3,4-d]pyrimidin-4-ol] were, in that order, not above 100 nM and 1000 to 10000 nM.
In the same order, the values of `Cc1cc(N2CCN(C)CC2)cc(N(C)c2ccc(Oc3nc(O)c4ccncc4n3)cc2)c1` [Example 90, 2-[4-[N,3-dimethyl-5-(4-methylpiperazin-1-yl)anilino]phenoxy]pyrido[3,4-d]pyrimidin-4-ol] are not above 100 nM and more than 10000 nM.
In the same order, the values of `Oc1nc(Oc2ccc3c(ccn3C3CCOCC3)c2)nc2cnccc12` [Example 91, 2-[1-(oxan-4-yl)indol-5-yl]oxypyrido[3,4-d]pyrimidin-4-ol] are 100 to 1000 nM and more than 10000 nM.
Take `CN(c1ccc(Oc2nc(O)c3ccncc3n2)cc1)c1ccc(C(C)(C)C)cc1` [Example 92, 2-[4-(4-tert-butyl-N-methylanilino)phenoxy]pyrido[3,4-d]pyrimidin-4-ol]: the IC50 on JMJD2C is 100 to 1000 nM; in test [1], not above 100 nM.
The like results for `CN(c1ccc(Cl)cc1)c1ccc(Oc2nc(O)c3ccncc3n2)cc1` [Example 94, 2-[4-(4-chloro-N-methylanilino)phenoxy]pyrido[3,4-d]pyrimidin-4-ol] were, in that order, 100 to 1000 nM and 100 to 1000 nM.
In the same order, the values of `CN(c1ccc(Oc2nc(O)c3ccncc3n2)cc1)c1cccc(Cl)c1` [Example 95, 2-[4-(3-chloro-N-methylanilino)phenoxy]pyrido[3,4-d]pyrimidin-4-ol] are 1000 to 10000 nM and 1000 to 10000 nM.

As a reminder, the IC50 is the concentration that inhibits the measured activity by half.
